According to publication PMC2213614 (The Journal of Cell Biology, 2008):

Biological target: Sec3N (GST-Sec3N, N terminus of Sec3, aa 1-320) (Saccharomyces cerevisiae, UniProt P33332)
Type: binding
Conditions: 25°C

Sequence of Sec3N (GST-Sec3N, N terminus of Sec3, aa 1-320) (P33332 1-320 limits assumed): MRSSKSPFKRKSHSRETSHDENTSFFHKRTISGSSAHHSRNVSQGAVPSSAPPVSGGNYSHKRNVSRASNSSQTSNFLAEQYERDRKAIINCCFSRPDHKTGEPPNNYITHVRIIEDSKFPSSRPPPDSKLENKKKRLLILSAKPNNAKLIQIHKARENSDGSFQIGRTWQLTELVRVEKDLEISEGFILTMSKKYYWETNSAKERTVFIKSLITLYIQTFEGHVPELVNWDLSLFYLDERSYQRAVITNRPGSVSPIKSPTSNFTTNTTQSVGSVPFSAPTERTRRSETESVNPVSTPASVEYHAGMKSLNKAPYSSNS

How did the Kd turn out when phosphatidylinositol 4,5-bisphosphate was run?
Its Kd is 14.4 ± 4 µM.
